Test results reported in PubChem BioAssay (NCI).
Values joined by “and” are separate entries in the source; they are usually repeats but may differ in a detail not shown here. Identical values can stand only once.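 These data come from cells grown in 96-well plates and exposed to compound for 48 hours at five concentrations. At the GI50, growth is halved. Definition used: TGI = concentration required for complete inhibition of growth.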

Tested on: MDA-MB-468 breast
Experiment: DTP human tumour cell line panel, 48 h

Row | SMILES | GI50 | TGI
1 | O=C(CN1CCN(c2cc3c(cc2F)c(=O)c(C(=O)O)cn3C2CC2)CC1)Nc1nc(-c2ccc(Cl)cc2)cs1 | 3430 nM | 30700 nM
2 | Cc1cc(Nc2nc(-c3cccnc3)nc3ccccc23)n[nH]1 | 1780 nM | 21400 nM
3 | C=C(C)C(=O)O[C@H]1C[C@@]2(C)OC(=CC2=O)/C(CO)=C\[C@H]2OC(=O)C(=C)[C@H]12 | 41.6 nM | 127 nM
4 | Oc1ccc(-c2nc3ccc4[nH]ncc4c3c3c2CCCC3)c(F)c1 | 4060 nM | 20300 nM
5 | COc1ccc2c(C3(c4cn(C)c5cc(OC)ccc45)C(=O)Nc4ccc(Cl)cc43)cn(C)c2c1 | 2540 nM | 9080 nM
6 | CC1=CC(=O)C(C(C)C)=CC1=Nc1cc(Br)c(O)c(Br)c1 | 3700 nM | 15500 nM
7 | COc1cccc(-c2ccc3c(c2)C2CCN(Cc4ccccc4)C3C2)c1 (stereo not given) | 2890 nM | 16100 nM
8 | COc1ccc(C(c2ccc(OCCN(C)C)cc2)c2cc3ccccc3c3ccccc23)cc1 (stereo not given) | 1580 nM | 3150 nM
9 | Brc1ccc2[nH]cc(-c3nc(-c4c[nH]c5ncccc45)cs3)c2c1 | 2660 nM | 10900 nM
10 | Cc1ccc(C(NC(=O)c2ccccc2)c2ccc3cccnc3c2O)cc1 (stereo not given) | 219 nM | 788 nM
11 | CC(=O)N1N=C(c2ccc(Nc3ccnc4cc(Cl)ccc34)cc2)CC1c1ccc(Cl)cc1 (stereo not given) | 2410 nM | > 100000 nM
12 | Cc1ccc(/C=C2\CN(C(=O)C(Cl)Cl)C/C(=C\c3ccc(C)cc3)C2=O)cc1 | 195 nM | 427 nM
13 | COc1ccccc1C1=C(Nc2ccccc2)C(=O)NC1=O | > 10300 nM | > 25000 nM
14 | Cc1cc2cc3ccc(N(C)C)cc3nc2cc1N | 229 nM | 1260 nM
15 | Cn1nc(-c2ccc(Cl)cc2)nc2c(=O)n(C)c(=O)nc1-2 | 1180 nM | 3350 nM
16 | O=[N+]([O-])c1ccc(Oc2nc(Nc3ccc(O[C@H]4CO[C@H]5[C@@H]4OC[C@@H]5O)c(Cl)c3)ncc2F)c(Cl)c1 | 1470 nM | 4660 nM
17 | CC(C)N1CCN(Cc2ccc3c(NNC(=O)c4ccccc4)nc4cc(F)ccc4n23)CC1 | 260 nM | 1400 nM
18 | CCOc1cc(Br)c(C(C)NC(=O)c2cccc(OC)c2)cc1OCC (stereo not given) | 3460 nM | 54700 nM
19 | FC(F)(F)c1ccc(-c2cnc(-n3cc(COCCN4CCCCC4)nn3)nc2NC2CCCCCC2)cc1 | 3540 nM | 7370 nM
20 | CC1=C(CN(O)C(N)=O)C2=C(C)C3(CC3)[C@](C)(O)C(=O)C2=C1 | 184 nM | 497 nM
21 | CCN1C(=O)CCCc2c1ccc(Nc1ncc(Cl)c(NC3[C@@H](C(N)=O)[C@@H]4C=C[C@H]3C4)n1)c2OC (stereo not given in full) | 1130 nM | 4800 nM

Row | SMILES | GI50 | TGI
22 | C=C1C(=O)O[C@H]2[C@H]1CC/C(COC(=O)CCSCCC(=O)OC/C1=C/CC[C@@]3(C)O[C@H]3[C@H]3OC(=O)C(=C)[C@@H]3CC1)=C\CC[C@@]1(C)O[C@@H]21 | 358 nM | 1500 nM
23 | COc1cccc(/C=N/NC(=S)NC2CC3CCC2C3)c1O (stereo not given) | 11400 nM | > 100000 nM
24 | COc1cccc(-c2nn(-c3ccccc3)cc2-c2ccnc(NCCNC(=O)Nc3cccc(C(F)(F)F)c3)c2)c1 | 1700 nM | 3430 nM
25 | CCN(Cc1ccc(F)cc1)c1ccc(CO)c(C)c1 | 167 nM | 591 nM
26 | COC1=C(C)C(=O)c2c(c(CCCl)c3n2CCC3O)C1=O (stereo not given) | 11100 nM | 34500 nM
27 | Nc1nc(N)c(C=Nc2ccc(Br)cc2)c(Nc2ccc(Br)cc2)n1 | 11000 nM | 23300 nM
28 | O=C(O)c1cn(C2CC2)c2cc(N3CCN(C(=O)Nc4nc(-c5ccccc5)cs4)CC3)c(F)cc2c1=O | 563 nM | 6520 nM
29 | CCN1C(=O)N(CC)C2SC(N/N=C/c3ccccc3)=NC21 (stereo not given) | 293 nM | 
30 | COc1cc2c(cc1OC)C(Sc1ccc(SC)cc1)c1c(nc(N)c(C#N)c1N)O2 (stereo not given) | 1030 nM | 2620 nM
31 | CCCCCCNC(=O)Oc1ccc(/C(=C(/C)Cc2ccc(OC)cc2)c2ccc(OCCCN(C)C)cc2)cc1 | 16700 nM | 32600 nM
32 | CCC(c1ccc(OC)cc1)C(CC)c1ccc(O)c(CN2CCN(C)CC2)c1 (stereo not given) | 2500 nM | 9770 nM
33 | O=C1c2c(c3c4cc(O)ccc4oc3c3[nH]c4ccccc4c23)C(=O)N1O | 478 nM | 1550 nM
34 | COc1cc(NS(C)(=O)=O)ccc1Nc1c2ccccc2nc2ccccc12 | 469 nM [middle of 4 runs] | 
35 | Cn1ccnc1C(=O)/C=C/c1ccc(CNC(=O)c2ccc(Cl)cc2)cc1 | 2050 nM | 4750 nM
36 | CC1=C(/C=C/C(C)=C/C=C/C(C)=C/C=N/NC(=S)NC(=S)N/N=C/C=C(C)/C=C/C=C(C)/C=C/C2=C(C)CCCC2(C)C)C(C)(C)CCC1 | 3250 nM and 2840 nM | 10500 nM and 10200 nM
37 | CN(Cc1cccc(F)c1)c1ccc(CO)c(Cl)c1 | 45.5 nM | 169 nM
38 | NC(=S)n1c(=O)n(-c2cccc(C(F)(F)F)c2)c(=O)c2cc(-c3ccc(F)cc3F)ccc21 | 2010 nM | 5800 nM
39 | COc1ccc(/C=c2\sc3n(c2=O)C2C(NN=3)N(C)C(=O)N2C)cc1 (stereo not given) | 231 nM | 783 nM
40 | N#Cc1c(Br)n(C2OC(CO)C(O)C2O)c2ncnc(N)c12 (stereo not given) | 2010 nM | 6120 nM
41 | COc1ccc(-c2ccc(-c3ccc(C(=N)N)nc3)s2)cc1Cl | 1740 nM | 3320 nM
